Assay results taken from publication PMC9127807, “Echinocandins Localized to the Target-Harboring Cell Surface Are Not Degraded but Those Entering the Vacuole Are” (ACS Chemical Biology, 2022).
≈ marks a conversion by molar mass, not a printed value. Where “and” joins values, the source holds several entries; their conditions need not be identical. Equal values may be shown once. Read-outs that look alike come from different tables or passages of the source. Starred links: 1 amine or outer side, 2 acyl side, 3 side chain; linkers in the order of their positions; H or OH if unused. Positions of bridges follow the written chain, without caps; N, C: chain ends. Non-standard residues stand in square brackets, D forms with d. Residues, ends and D or L forms follow the SMILES beside them. *: point of attachment. X1 = O=C([C@@H](N[*:1])[C@H](O)[C@@H](O)c1ccc(OCc2cn(CCCNc3ccc([N+](=O)[O-])c4nonc34)nn2)cc1)[*:2]; Orn(4R-OH,5R-OCH2CH2NMe3+) = C[N+](C)(C)CCO[C@@H](N[*:3])[C@H](O)C[C@H](N[*:1])C(=O)[*:2]; pTerphenylCO(4''-OnC5H11) = CCCCCOc1ccc(-c2ccc(-c3ccc(C(=O)*)cc3)cc2)cc1; Orn(4R-OH,5R-OH) = O=C([C@H](C[C@@H](O)[C@@H](O)N[*:3])N[*:1])[*:2]; hTyr(3S-OH,4S-OH) = N[C@H](C(=O)O)[C@H](O)[C@@H](O)c1ccc(O)cc1; Pro(3S-OH,4S-Me) = C[C@H]1CN[C@H](C(=O)O)[C@H]1O; Hyp = O=C(O)[C@@H]1C[C@@H](O)CN1

Columns and labels:
C. albicans SC5314 cells = conditions: for percentage degraded: 24 h, 10 μM, 30 °C, RP-HPLC of lysates
Protocol: C. albicans SC5314 cells were streaked from glycerol stocks onto YPAD agar plates and grown for 24 h at 30 °C. Colonies were grown in tubes in 3 mL of YPAD broth for 24 h at 30 °C with shaking. Cultures were diluted 1:50 and incubated in 5 mL of YPAD broth for 3 h at 30 °C with shaking until log-phase growth was observed. Cultures were then centrifuged (4000 rpm, 3 min), washed with PBS buffer, and resuspended in 1 mL of PBS buffer or YPAD. Cells were incubated with TMR-based probes (1 or 3) at a final concentration of 10 μM at 30 °C with shaking in the dark for 24 h. After washing three times with PBS, cells were resuspended in 75 μL of TNE buffer (10 mM Tris, 100 mM NaCl, and 1 mM ethylenediaminetetraacetic acid, pH 8.0) in a 1.5 mL Eppendorf tube, and 0.5 mm diameter beads were added to the yeast solution. The mixture was agitated on a vortex at maximum speed for 5 min. Next, 200 μL of 2% Triton X-100 in TNE buffer (v/v) was added to the agitated solution, and then the mixture was sonicated for 15 min. To clarify the yeast lysate, the mixture was centrifuged twice (16 000g, 20 min), and the supernatant was removed and filtered using a 0.22 μm syringe filter. The samples were analyzed using analytical reverse-phase HPLC at a 550 nm wavelength. HPLC conditions: mobile phase: acetonitrile in H2O (containing 0.1% trifluoroacetic acid (v/v)), gradient from 10 to 90%; flow rate: 1 mL/min; absorbance wavelength: 550 nm. Each sample was tested in two independent sets of experiments. The percentages of intact echinocandin were determined using the area calculation function available in the Hitachi Primaide Software and are presented as means (two replicates) ± standard deviation (SD).

C. albicans ATCC 10231 = conditions: strain D, echinocandin-susceptible; YPAD broth, 24 h, 30 °C, OD600 reduced by ≥75%
Protocol: (§1) Candida strains were streaked from glycerol stock onto YPAD agar plates and grown for 24 h at 30 °C. Colonies were suspended in 1 mL of PBS and diluted to an optical density of 2 × 10^–4 at 600 nm (OD600) in flat-bottom 96-well microplates (Corning) with YPAD broth containing dilutions of each tested compound at concentrations ranging from 64 to 0.008 μg/mL in twofold dilutions. Control wells with yeast cells but no drug and blank wells that contained only YPAD were prepared. MIC values (Table S2) were determined after 24 h at 30 °C by measuring the OD600 using a plate reader (Infinite M200 PRO, Tecan). MIC values were defined as the point at which the OD600 was reduced by ≥75% compared to the no-drug wells. Each concentration was tested in triplicate, and the results were confirmed by two independent sets of experiments.

C. albicans ATCC 24433 = conditions: strain C, echinocandin-susceptible; YPAD broth, 24 h, 30 °C, OD600 reduced by ≥75%
Protocol: as §1

C. albicans ATCC 90028 = conditions: strain E, echinocandin-susceptible; YPAD broth, 24 h, 30 °C, OD600 reduced by ≥75%
Protocol: as §1

[1] = system: C. albicans DPL1016 (DP-A15-10); conditions: strain F, echinocandin resistant FKS mutation; YPAD broth, 24 h, 30 °C, OD600 reduced by ≥75%
Protocol: as §1

C. albicans SC5314 = conditions: strain A, echinocandin-susceptible; YPAD broth, 24 h, 30 °C, OD600 reduced by ≥75%; triplicate, two independent experiments
Protocol: as §1

[2] = system: C. albicans T-2068 (DP-C42); conditions: strain G, echinocandin resistant FKS mutation; YPAD broth, 24 h, 30 °C, OD600 reduced by ≥75%
Protocol: as §1

C. glabrata ATCC 2001 = conditions: strain I, echinocandin-susceptible; YPAD broth, 24 h, 30 °C, OD600 reduced by ≥75%
Protocol: as §1

C. glabrata ATCC 66032 = conditions: strain J, echinocandin-susceptible; YPAD broth, 24 h, 30 °C, OD600 reduced by ≥75%
Protocol: as §1

C. glabrata ATCC 90030 = conditions: strain K, echinocandin-susceptible; YPAD broth, 24 h, 30 °C, OD600 reduced by ≥75%
Protocol: as §1

C. glabrata EF1620 = conditions: strain H, echinocandin-susceptible; YPAD broth, 24 h, 30 °C, OD600 reduced by ≥75%
Protocol: as §1

C. glabrata T-192 (1775) = conditions: strain L, echinocandin-susceptible; YPAD broth, 24 h, 30 °C, OD600 reduced by ≥75%
Protocol: as §1

C. glabrata TGL00275 = conditions: strain M, echinocandin resistant FKS mutation; YPAD broth, 24 h, 30 °C, OD600 reduced by ≥75%
Protocol: as §1

C. glabrata TGL00277 = conditions: strain N, echinocandin resistant FKS mutation; YPAD broth, 24 h, 30 °C, OD600 reduced by ≥75%
Protocol: as §1

C. albicans SN152 = test: MIC broth double-dilution assay; type: cell-based, Candida albicans; conditions: strain B, echinocandin-susceptible; YPAD broth, 24 h, 30 °C, OD600 reduced by ≥75%
Protocol: as §1, with “Colonies” for “Candida strains were streaked from glycerol stock onto YPAD agar plates and grown for 24 h at 30 °C. Colonies”

[3] = incubation in human plasma for 44 h at 37 °C; cited from earlier work
From the text: Intending to develop echinocandins with improved chemical stability under physiological conditions, Cidara Therapeutics developed rezafungin (RZF), a novel ANF derivative with distinctive pharmacokinetic and pharmacodynamic profiles, which entered phase III trials in October 2018 (Figure 1).[18]−[21] […] Instead of the daily intravenous administration regime used for the other three echinocandins, RZF can be administered intravenous ...

[4] = system: C. albicans SC5314 cell lysate; conditions: incubated with lysate of C. albicans SC5314 in buffer for 24 h; RP-HPLC
Protocol: C. albicans SC5314 cells were streaked from glycerol stocks onto YPAD agar plates and grown for 24 h at 30 °C. Colonies were grown in tubes in 3 mL of YPAD broth for 24 h at 30 °C with shaking. Cultures were diluted 1:50 and incubated in 5 mL of YPAD broth for 3 h at 30 °C with shaking until log-phase growth was observed. Cultures were then centrifuged (4000 rpm, 3 min), washed with PBS buffer, and resuspended in 1 mL of PBS buffer or YPAD. Cells were incubated with TMR-based probes (1 or 3) at a final concentration of 10 μM at 30 °C with shaking in the dark for 24 h. After washing three times with PBS, cells were resuspended in 75 μL of TNE buffer (10 mM Tris, 100 mM NaCl, and 1 mM ethylenediaminetetraacetic acid, pH 8.0) in a 1.5 mL Eppendorf tube, and 0.5 mm diameter beads were added to the yeast solution. The mixture was agitated on a vortex at maximum speed for 5 min. […] The samples were analyzed using analytical reverse-phase HPLC at a 550 nm wavelength. HPLC conditions: mobile phase: acetonitrile in H2O (containing 0.1% trifluoroacetic acid (v/v)), gradient from 10 to 90%; flow rate: 1 mL/min; absorbance wavelength: 550 nm. […] The percentages of intact echinocandin were determined using the area calculation function available in the Hitachi Primaide Software and are presented as means (two replicates) ± standard deviation (SD).

SMILES | decomposition (C. albicans SC5314 cells; incubated with cells or lysates of C. albicans SC5314, 24 h, regardless of the media used (PBS, YPAD)) | MIC (C. albicans ATCC 10231) [µg/mL] | MIC (C. albicans ATCC 24433) [µg/mL] | MIC (C. albicans ATCC 90028) [µg/mL] | MIC [1] [µg/mL] | MIC (C. albicans SC5314) [µg/mL] | MIC [2] [µg/mL] | MIC (C. glabrata ATCC 2001) [µg/mL] | MIC (C. glabrata ATCC 66032) [µg/mL] | MIC (C. glabrata ATCC 90030) [µg/mL] | MIC (C. glabrata EF1620) [µg/mL] | MIC (C. glabrata T-192 (1775)) [µg/mL] | MIC (C. glabrata TGL00275) [µg/mL] | MIC (C. glabrata TGL00277) [µg/mL] | MIC (C. albicans SN152) [µg/mL] | percent of intact drug [3] [%] | percentage degraded (C. albicans SC5314 cells; cells in nutrient-free PBS buffer) | percentage degraded (C. albicans SC5314 cells; cells in nutrient-rich YPAD medium) | percentage intact (C. albicans SC5314 cells; control: 5 min incubation with the cells in PBS, RP-HPLC) [%] | percentage intact [4]
CCCCCOc1ccc(-c2ccc(-c3ccc(C(=O)N[C@H]4C[C@@H](O)[C@@H](OCCc5cn(CCCNC(=O)c6ccc(-c7c8ccc(=[N+](C)C)cc-8oc8cc(N(C)C)ccc78)c(C(=O)[O-])c6)nn5)NC(=O)[C@@H]5[C@@H](O)[C@@H](C)CN5C(=O)[C@H]([C@@H](C)O)NC(=O)[C@H]([C@H](O)[C@@H](O)c5ccc(O)cc5)NC(=O)[C@@H]5C[C@@H](O)CN5C(=O)[C@H]([C@@H](C)O)NC4=O)cc3)cc2)cc1 [Probe 3] | no significant decomposition | – | – | – | – | – | – | – | – | – | – | – | – | – | – | – | – | – | – | –
CCCCCOc1ccc(-c2ccc(-c3ccc(C(=O)N[C@H]4C[C@@H](O)[C@@H](OCC[N+](C)(C)C)NC(=O)[C@@H]5[C@@H](O)[C@@H](C)CN5C(=O)[C@H]([C@@H](C)O)NC(=O)[C@H]([C@H](O)[C@@H](O)c5ccc(O)cc5)NC(=O)[C@@H]5C[C@@H](O)CN5C(=O)[C@H]([C@@H](C)O)NC4=O)cc3)cc2)cc1 [RZF, rezafungin, reference compound] ({pTerphenylCO(4''-OnC5H11)}-[Orn(4R-OH,5R-OCH2CH2NMe3+)]T[Hyp][hTyr(3S-OH,4S-OH)]T[Pro(3S-OH,4S-Me)]; lactam 1-C) | – | 0.063 | 0.031 | 0.031 | 8 | 0.016 | 4 | 0.063 | 0.031 | 0.031 | 0.016 | 0.016 | 8 | > 64 | 0.031 | 91 | – | – | – | –
CCCCCOc1ccc(-c2ccc(-c3ccc(C(=O)N[C@H]4C[C@@H](O)[C@@H](OCC[N+](C)(C)C)NC(=O)[C@@H]5[C@@H](O)[C@@H](C)CN5C(=O)[C@H]([C@@H](C)O)NC(=O)[C@H]([C@H](O)[C@@H](O)c5ccc(OCc6cn(CCCNc7ccc([N+](=O)[O-])c8nonc78)nn6)cc5)NC(=O)[C@@H]5C[C@@H](O)CN5C(=O)[C@H]([C@@H](C)O)NC4=O)cc3)cc2)cc1 [Probe 6] ({pTerphenylCO(4''-OnC5H11)}-[Orn(4R-OH,5R-OCH2CH2NMe3+)]T[Hyp][X1]T[Pro(3S-OH,4S-Me)]; lactam 1-C) | – | 0.5 | 0.5 | 0.5 | > 64 | 0.5 | > 64 | 1 | 1 | 1 | 0.5 | 0.5 | > 64 | > 64 | 0.5 | – | – | – | – | –
CC[C@H](C)C[C@H](C)CCCCCCCCC(=O)N[C@H]1C[C@@H](O)[C@@H](NCCN)NC(=O)[C@@H]2[C@@H](O)CCN2C(=O)[C@H]([C@H](O)CCN)NC(=O)[C@H]([C@H](O)[C@@H](O)c2ccc(OCc3cn(CCCNC(=O)c4ccc(-c5c6ccc(=[N+](C)C)cc-6oc6cc(N(C)C)ccc56)c(C(=O)[O-])c4)nn3)cc2)NC(=O)[C@@H]2C[C@@H](O)CN2C(=O)[C@H]([C@@H](C)O)NC1=O [Probe 1] | – | – | – | – | – | – | – | – | – | – | – | – | – | – | – | – | approximately 70% | approximately 40% | ~80 | 78% and ~80%
CCCCCOc1ccc(-c2ccc(-c3ccc(C(=O)N[C@H]4C[C@@H](O)[C@@H](O)NC(=O)[C@@H]5[C@@H](O)[C@@H](C)CN5C(=O)[C@H]([C@@H](C)O)NC(=O)[C@H]([C@H](O)[C@@H](O)c5ccc(O)cc5)NC(=O)[C@@H]5C[C@@H](O)CN5C(=O)[C@H]([C@@H](C)O)NC4=O)cc3)cc2)cc1 [ANF, anidulafungin, reference compound] ({pTerphenylCO(4''-OnC5H11)}-[Orn(4R-OH,5R-OH)]T[Hyp][hTyr(3S-OH,4S-OH)]T[Pro(3S-OH,4S-Me)]; lactam 1-C) | – | 0.016 (≈ 0.014 µM) | 0.008 (≈ 0.00702 µM) | 0.016 (≈ 0.014 µM) | 4 (≈ 3.51 µM) | 0.008 (≈ 0.00702 µM) | 4 (≈ 3.51 µM) | 0.008 (≈ 0.00702 µM) | 0.016 (≈ 0.014 µM) | 0.016 (≈ 0.014 µM) | 0.008 (≈ 0.00702 µM) | 0.008 (≈ 0.00702 µM) | 4 (≈ 3.51 µM) | > 64 | 0.008 (≈ 0.00702 µM) | 7 | – | – | – | –
CC[C@H](C)C[C@H](C)CCCCCCCCC(=O)N[C@H]1C[C@@H](O)[C@@H](NCCN)NC(=O)[C@@H]2[C@@H](O)CCN2C(=O)[C@H]([C@H](O)CCN)NC(=O)[C@H]([C@H](O)[C@@H](O)c2ccc(OCc3cn(CCCNc4ccc([N+](=O)[O-])c5nonc45)nn3)cc2)NC(=O)[C@@H]2C[C@@H](O)CN2C(=O)[C@H]([C@@H](C)O)NC1=O [Probe 2] | – | 2 (≈ 1.43 µM) | 2 (≈ 1.43 µM) | 2 (≈ 1.43 µM) | > 64 | 1 (≈ 0.717 µM) | 64 (≈ 45.9 µM) | 2 (≈ 1.43 µM) | 4 (≈ 2.87 µM) | 4 (≈ 2.87 µM) | 4 (≈ 2.87 µM) | 2 (≈ 1.43 µM) | > 64 | > 64 | 1 (≈ 0.717 µM) | – | – | – | – | –
CC[C@H](C)C[C@H](C)CCCCCCCCC(=O)N[C@H]1C[C@@H](O)[C@@H](NCCN)NC(=O)[C@@H]2[C@@H](O)CCN2C(=O)[C@H]([C@H](O)CCN)NC(=O)[C@H]([C@H](O)[C@@H](O)c2ccc(O)cc2)NC(=O)[C@@H]2C[C@@H](O)CN2C(=O)[C@H]([C@@H](C)O)NC1=O [CSF, caspofungin, reference compound] | – | 0.063 (≈ 0.0576 µM) | 0.031 (≈ 0.0284 µM) | 0.063 (≈ 0.0576 µM) | 32 (≈ 29.3 µM) | 0.031 (≈ 0.0284 µM) | 16 (≈ 14.6 µM) | 0.063 (≈ 0.0576 µM) | 0.063 (≈ 0.0576 µM) | 0.125 (≈ 0.114 µM) | 0.031 (≈ 0.0284 µM) | 0.016 (≈ 0.0146 µM) | 16 (≈ 14.6 µM) | > 64 | 0.031 (≈ 0.0284 µM) | – | – | – | – | –
CCCCCOc1ccc(-c2ccc(-c3ccc(C(=O)N[C@H]4C[C@@H](O)[C@@H](OCCc5cn(CCCNc6ccc([N+](=O)[O-])c7nonc67)nn5)NC(=O)[C@@H]5[C@@H](O)[C@@H](C)CN5C(=O)[C@H]([C@@H](C)O)NC(=O)[C@H]([C@H](O)[C@@H](O)c5ccc(O)cc5)NC(=O)[C@@H]5C[C@@H](O)CN5C(=O)[C@H]([C@@H](C)O)NC4=O)cc3)cc2)cc1 [Probe 4] | – | 0.25 (≈ 0.172 µM) | 0.25 (≈ 0.172 µM) | 0.5 (≈ 0.344 µM) | > 64 | 0.25 (≈ 0.172 µM) | > 64 | 0.5 (≈ 0.344 µM) | 0.5 (≈ 0.344 µM) | 0.5 (≈ 0.344 µM) | 0.5 (≈ 0.344 µM) | 0.25 (≈ 0.172 µM) | > 64 | > 64 | 0.25 (≈ 0.172 µM) | – | – | – | – | –
